Literature values, collected in US11691145B2, “Platform and method for multi-variable screening” (Wisconsin Alumni Research Foundation, priority 2018, dated 2023).

Test system: bacterial pathogens (infection)
Details: phase 3 clinical trial

## CO/N=C(\C(=O)N[C@@H]1C(=O)N2C(C(=O)O)=C(COC(C)=O)CS[C@H]12)c1csc(N)n1 [cefotaxime]
Patients with a "resistant" antibiotic sensitivity test result
  patients who responded to the antibiotic therapy: 64%
Patients with a "sensitive" antibiotic sensitivity test result, best case scenario
  patients who would respond to the antibiotic therapy: 93%
